Here are results for 8 compounds from patent US20250115633A1, “PHOTODYNAMIC THERAPY AND DIAGNOSIS” (RMW CHO Group Limited, priority 2021, published 2025).

Data set [1] deals with SKOV3 ovarian cancer cells. Nature of the data set: Inherent cytotoxicity (dark toxicity) in SKOV3 cells (AlamarBlue viability). Format: cell-based, Human. Here is the method: (§1) Samples were stored at 4° C. protected from light.
(§2) All data are shown as mean±SD (where appropriate).
Untreated cells were used as a control. […] All measurements were made in quadruplicate.
(Alamar Blue is a resazurin reagent that responds to reducing activity.)

Data set [2] concerns SKOV3 ovarian cancer cells. Put plainly: Phototoxicity in SKOV3 cells after 660 nm light activation (AlamarBlue viability). The format is cell-based, Human. The following applies: read-out: Phototoxicity μM (IC90). The protocol:
as §1, §2
Media was then replaced with fresh media containing AlamarBlue, and % viable cells remaining assessed as above. Controls included cells treated with chlorin e4 analogues but not activated by laser light; cells without chlorin e4 analogue treatment but with laser light; and untreated controls. All measurements were made in quadruplicate.

The mark [3] stands for this setting: SKOV3, 24 hours incubation, no light activation.
[4] abbreviates: Homo sapiens, SK-OV-3, light or radiation study.
Setting [5] is: SKOV3, 24 hours uptake, 660 nm, 50 mW/cm^2 for 5 mins (total 15 J/cm^2), * phototoxicity measured by LED.

Structures can show the parent of a compound that is named as a salt. Where two headings read alike, the source gives them in different places.

By IC90 is commonly meant the point of the concentration-response curve where the effect stands at 90%. Consider `C=Cc1c(C)c2cc3nc(c(C)c4[nH]c(cc5nc(cc1[nH]2)C(C)=C5CC)c(C)c4C(=O)O)[C@@H](CCC(=O)O)[C@@H]3C` [Chlorin e4 disodium, Chlorin e4 Disodium Salt, reference compound], for which the “Dark toxicity μM (IC10)” value in data set [1] worked out at 40.23 µM. The IC90 in data set [2] (SKOV3, 24 hours uptake, 660 nm, 50 mW/cm^2 for 5 mins (total 15 J/cm^2), values not marked * (laser)) worked out at 21.3 µM.

Regarding `CCC1=C(C)c2cc3[nH]c(cc4nc(c(C)c5[nH]c(cc1n2)c(C)c5C(=O)OC)[C@@H](CCC(=O)OC)[C@@H]4C)c(C)c3C(C)OCCCS[C@@H]1O[C@H](CO)[C@@H](O)[C@H](O)[C@H]1O` (stereo partly drawn) [Compound 1, methyl (7S,8S)-18-ethyl-7-(3-methoxy-3-oxopropyl)-2,5,8,12,17-pentamethyl-13-(1-(3-(((2S,3R,4S,5S,6R)-3,4,5-trihydroxy-6-(hydroxymethyl)tetrahydro-2H-pyran-2-yl)thio)propoxy)ethyl)-7H,8H-porphyrin-3-carboxylate], in data set [1] (setting [3]), the “Dark toxicity μM (IC10)” value worked out at 8.64 µM. In data set [2] (setting [4]), the IC90 amounted to 0.06 µM.

As to `CCC1=C(C)c2cc3[nH]c(cc4nc(c(C)c5[nH]c(cc1n2)c(C)c5C(=O)OC)[C@@H](CCC(=O)OC)[C@@H]4C)c(C)c3COC(=O)NCCCOCCC[P+](c1ccccc1)(c1ccccc1)c1ccccc1` [Compound 4, chlorin e4 dimethyl ester 13-(N-(3-(3-triphenylphosphoniumpropoxy)propyl)chloride)carbamate], the “Dark toxicity μM (IC10)” value in data set [1] (setting [3]) is 3.881 µM. Further, the IC90 in data set [2] (setting [4]) turned out to be 0.0024 µM.

Take `CCC1=C(C)c2cc3[nH]c(cc4nc(c(C)c5[nH]c(cc1n2)c(C)c5C(=O)OC)[C@@H](CCC(=O)OC)[C@@H]4C)c(C)c3COC(=O)NCCC[P+](c1ccccc1)(c1ccccc1)c1ccccc1` [Compound 5, chlorin e4 dimethyl ester 13-(N-(3-triphenylphosphoniumpropyl)bromide)carbamate]: the “Dark toxicity μM (IC10)” value in data set [1] (setting [3]) is 3.046 µM. Besides, the IC90 in data set [2] (setting [4]) was 0.0029 µM.

Consider `CCC1=C(C)c2cc3[nH]c(cc4nc(c(C)c5[nH]c(cc1n2)c(C)c5C(=O)OC)[C@@H](CCC(=O)OC)[C@@H]4C)c(C)c3COC(=O)NCC[P+](c1ccccc1)(c1ccccc1)c1ccccc1` [Compound 6, chlorin e4 dimethyl ester 13-(N-(2-triphenylphosphoniumethyl)bromide)carbamate], for which the “Dark toxicity μM (IC10)” value in data set [1] (setting [3]) stood at 2.281 µM. Moreover, in data set [2] (Homo sapiens, SK-OV-3, light or radiation study, SKOV3, 24 hours uptake, 660 nm, 50 mW/cm^2 for 5 mins (total 15 J/cm^2), * phototoxicity measured by LED), the IC90 was 0.0018 µM.

As for `C=Cc1c(C)c2cc3nc(c(CC(=O)N[C@@H](CC(=O)O)C(=O)O)c4[nH]c(cc5nc(cc1[nH]2)C(C)=C5CC)c(C)c4C(=O)O)[C@@H](CCC(=O)O)[C@@H]3C` [Talaporfin sodium, reference compound], in data set [1] (setting [3]), the “Dark toxicity μM (IC10)” value was 11.10 µM.

On to “chlorin e4 13-hydroxymethyl dimethyl ester”, for which, in data set [1], the “Dark toxicity μM (IC10)” value came to 42.830 µM. In addition, the IC90 in data set [2] (setting [5]) was 0.325 µM.

For the compound “chlorin e4 dimethyl ester 13-(6-(triphenylphosphonium bromide)hexyl)carbamate [Compound 3]”, the “Dark toxicity μM (IC10)” value in data set [1] (setting [3]) turned out to be 0.838 µM. Further, in data set [2] (setting [5]), the IC90 came to 0.0041 µM.
